Earlier results on one compound are cited in patent publication US10052339B2, “Methods and compositions for treating symptoms of diseases related to imbalance of essential fatty acids” (BODYBIO INC, priority 2014, dated 2018).

The target of one series is CB2 receptor (Homo sapiens, UniProt P34972).
The next series has as its target CB1 cannabinoid receptor (Homo sapiens, UniProt P21554).

Sequence of CB1 cannabinoid receptor (P21554 whole entry): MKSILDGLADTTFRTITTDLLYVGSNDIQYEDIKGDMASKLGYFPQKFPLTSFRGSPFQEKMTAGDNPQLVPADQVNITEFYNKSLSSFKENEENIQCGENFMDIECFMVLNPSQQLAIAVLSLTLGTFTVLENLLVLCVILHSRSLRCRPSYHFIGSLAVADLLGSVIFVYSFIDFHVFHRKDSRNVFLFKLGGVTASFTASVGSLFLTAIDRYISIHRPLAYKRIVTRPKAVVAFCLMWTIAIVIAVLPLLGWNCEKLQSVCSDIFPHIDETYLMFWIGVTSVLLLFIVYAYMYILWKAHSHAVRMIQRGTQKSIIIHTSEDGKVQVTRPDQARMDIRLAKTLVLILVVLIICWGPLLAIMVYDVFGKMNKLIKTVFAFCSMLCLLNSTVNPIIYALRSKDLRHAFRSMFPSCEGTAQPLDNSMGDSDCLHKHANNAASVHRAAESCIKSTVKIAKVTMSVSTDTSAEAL
Sequence of CB2 receptor (P34972 whole entry): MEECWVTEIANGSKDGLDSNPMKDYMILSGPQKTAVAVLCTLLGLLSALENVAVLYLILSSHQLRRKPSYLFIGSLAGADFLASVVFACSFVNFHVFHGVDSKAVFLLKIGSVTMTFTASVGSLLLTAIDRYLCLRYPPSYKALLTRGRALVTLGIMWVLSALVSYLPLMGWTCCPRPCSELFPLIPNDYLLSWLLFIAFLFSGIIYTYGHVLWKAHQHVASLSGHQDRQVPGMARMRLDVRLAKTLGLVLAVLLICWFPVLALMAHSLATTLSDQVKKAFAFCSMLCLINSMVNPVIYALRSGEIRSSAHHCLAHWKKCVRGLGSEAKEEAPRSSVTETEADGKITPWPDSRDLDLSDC

What is called Ki is the dissociation constant of the complex between target and ligand, obtained from inhibition or displacement. On to `CCCCC/C=C\C/C=C\C/C=C\C/C=C\CCCCOC(CO)CO` [Noladin ether, 2-arachidonyl glyceryl ether], for which the “effects caused in mice” value with mice was “sedation, hypothermia, intestinal immobility, and mild antinociception”. On CB2 receptor, the “binding to the CB2 receptor” value is recorded as “only weakly”. The Ki on CB1 cannabinoid receptor was 21.2 nM.
